Measured values published in patent US20260364057A1, “AMIDE COMPOUND, AND COMPOSITION AND USE THEREOF” (SIMCERE ZAIMING PHARMACEUTICAL CO., LTD., priority 2022, published 2026).

Experiments:
OVCAR3 cells = assay: Inhibition of proliferation of OVCAR-3 cells (Cell-Titer Glo); format: cell-based; settings: Homo sapiens, OVCAR-3, 72 h, 3 days, 1000 cells/well
Excerpt: Test Example 2. Test on Inhibition of Proliferation of OVCAR-3 Cells by Compounds of Present Disclosure
Cell and material: The human ovarian cancer cell line OVCAR3 was purchased from ATCC (Cat. No. HTB-161™), RPMI 1640 medium (Gibco #A1049101), penicillin-streptomycin (Gibco #15140122), and 0.25% Trypsin-EDTA (Gibco #25200056) were purchased from Gibco (U.S.), bovine insulin (Yeasen #40107ES60) was purchased from Yeasen, 384-well plates (Corning #CLS3765) was purchased from Corning (U.S.), and Cell-Titer Glo reagent (Promega #G7568) was purchased from Promega (U.S.).
Cell culture: OVCAR3 cells were cultured in RPMI 1640 complete medium (RPMI 1640 medium containing 20% fetal bovine serum, […] bovine insulin, and 1% penicillin-streptomycin) in an incubator (37 °C, 5% CO2), and the cells could be used in experiments when in the logarithmic growth phase.
Cell proliferation activity test: The Cell-Titer Glo reagent was used to test the compound for inhibition of proliferation of the OVCAR3 cell strain. The compound formulated with DMSO and pure DMSO (control) were each added to a 384-well plate using an Echo instrument; the compound was subjected to 3-fold serial dilution starting from 30 μM to obtain 11 concentration points, and the volume of the compound or DMSO added was 100 nL.
OVCAR3 cells were digested and resuspended in RPMI 1640 complete medium, and the suspension was added to a 384-well plate (1000 cells/50 μL/well) to be well mixed with the compound. The mixture was incubated in an incubator (37 °C, 5% CO2) for 3 days. The Cell-Titer Glo reagent was added at 25 µL/well, and the resulting mixture was well mixed by shaking and then incubated for 10 min. The Cell-Titer Glo readings were measured with a Multimode Plate Reader (brand: PerkinElmer; model: SIC-PV-018).
A negative control group (Bottom) was set, and the negative control group was medium wells with 0.2% DMSO added and was defined as 100% proliferation inhibition; the positive control group (Top) was OVCAR3 cell wells with 0.2% DMSO added.
The percent proliferation inhibition (% Inhibition) was calculated, and the curves were fit using the four-parameter equation, Y=Bottom+(Top−Bottom)/(1+(IC50/X)^HillSlope), to obtain the proliferation inhibition IC50 of the compound. • Percent inhibition: % Inhibition=(1−(Signal−Bottom)/(Top−Bottom))×100%. • Signal: Cell-Titer Glo reading of wells with compound added; • Bottom: Cell-Titer Glo reading of negative control wells; • Top: Cell-Titer Glo reading of positive control wells.

Human KIF18A (1-376aa) = target: T1, Human KIF18A (1-376aa) (Homo sapiens, UniProt Q8NI77); assay: KIF18A enzyme activity assay (ADP-Glo); format: biochemical; settings: microtubule 50 μg/mL, ATP (Km 70 μM), room temperature, 15 min, read-out: KIF18A inhibitory activity IC50
T1 construct: Human KIF18A (1-376aa) protease used in the experiments; purchased Shanghai Panchao Biotechnology Co., Ltd
T1 sequence (Q8NI77 1-376): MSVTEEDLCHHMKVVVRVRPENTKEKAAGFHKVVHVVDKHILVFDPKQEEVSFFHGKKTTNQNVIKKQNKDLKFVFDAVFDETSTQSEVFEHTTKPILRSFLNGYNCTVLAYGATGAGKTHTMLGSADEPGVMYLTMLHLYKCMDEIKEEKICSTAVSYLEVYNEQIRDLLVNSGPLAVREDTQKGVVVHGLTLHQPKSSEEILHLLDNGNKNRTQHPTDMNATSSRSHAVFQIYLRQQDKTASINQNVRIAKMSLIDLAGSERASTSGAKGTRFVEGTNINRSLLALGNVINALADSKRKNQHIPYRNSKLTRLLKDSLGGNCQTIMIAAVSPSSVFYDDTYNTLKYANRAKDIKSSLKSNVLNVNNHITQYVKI
Method: Test Example 1: KIF18A Enzyme Activity Assay
Based on the ADP-Glo™ Kinase Assay, the ADP amount generated in the reaction was detected to reflect the enzyme activity of KIF18A.
Human KIF18A (1-376aa) […] used in the experiments, expressed by Shanghai Panchao Biotechnology Co., Ltd., was stored at −80 °C (no more than 5 freeze-thaw cycles).
The assay kit (ADP-Glo™ Kinase Assay) was purchased from Promega (Cat. No. V9101) and stored at −30 °C. The kit detects the enzyme activity by measuring ADP generated in enzyme reaction. The KIF18A enzyme and ATP generate ADP. The remaining ATP in this reaction is consumed by the ADP-Glo reagent, while the ADP generated by the KIF18A enzyme reaction is converted back to ATP by the assay reagent. The ATP then reacts with luciferin in the presence of Ultra-Glo™ luciferase, producing luminescence. The luminescent signal is positively correlated with the activity of the KIF18A enzyme.
Compounds were each subjected to 3-fold serial dilution starting from 10 μM to obtain 10 concentration points. The compounds and pure DMSO (control) were pipetted into wells of a 384-well plate using an Echo instrument, and the total volume of compound and DMSO was 100 nL; sample concentrations of gradient dilution were obtained by the instrument based on different ratios. Preparation of a KIF18A enzyme reaction buffer: […], 10 mM MgCl2, 0.01% Pluronic F-68, 1 μM Taxol, and 50 μg/mL Microtubule. KIF18A and the enzyme reaction buffer were mixed, and then the mixed solution was added to the 384-well plate and incubated at room temperature for 15 min. ATP (Km 70 μM) was then added to the mixed solution, and the mixed solution was incubated at room temperature for 15 min. 10 μL of ADP-Glo™ Reagent was well mixed with 10 μL of the mixed solution, and the mixture was incubated at room temperature for 40 min. Finally, 20 μL of ADP-Glo™ Detection Reagent was added, and the mixture was incubated at room temperature for 30 min. The chemiluminescent signal in each well was measured using an Envision plate reader (PerkinElmer, emission wavelength: 400-700 nm). In the experiment, 1 column of wells with no compound and no enzyme (chemiluminescence value was taken as [RLU]background) and 1 column of wells with enzyme but no compound (chemiluminescence value was taken as [RLU]enzyme) were provided. The chemiluminescence value of the compound adding group was taken as [RLU]cpd. The inhibition rate of the compound on […] was calculated according to the following equation: inhibition rate (%)=([RLU]enzyme−[RLU]cpd)/([RLU]enzyme−[RLU]background)×100%, and the inhibitory activity IC50 value of the compound on the enzyme activity was calculated using a four-parameter Logistic Model method. In the following equation, x represents the logarithmic form of the concentration of compound, and f (x) represents an effect value (inhibition rate of enzyme activity at the concentration): F(x)=(A+((B−A)/(1+((C/x)^D)))). A. B, C, and D are four parameters.

SMILES | IC50 (OVCAR3 cells) [nM] | IC50 (Human KIF18A (1-376aa)) [nM]
O=C(Nc1cccc2c1nc1n2CCCC1)c1ccc(NS(=O)(=O)CCO)cc1N1CCC2(CC1)CC2 [Compound 12] | 95.9 | < 200
O=C(Nc1cccc2c1nc1n2CCCCC1)c1ccc(NS(=O)(=O)CCO)cc1N1CCC2(CC1)CC2 [Compound 24] | 52 | < 200
O=C(Nc1cccn2c3c(nc12)CCCCC3)c1ccc(NS(=O)(=O)CCO)cc1N1CCC2(CC1)CC2 [Compound 29] | 69.8 | < 200
O=C(Nc1cccc2c1nc1n2CCOC1)c1ccc(NS(=O)(=O)CCO)cc1N1CCC2(CC1)CC2 [Compound 34] | 22.8 | < 200
O=C(Nc1cccc2c1nc1n2CC2CCC1C2)c1ccc(NS(=O)(=O)CCO)cc1N1CCC2(CC1)CC2 (centres unmarked) [Compound 35] | 88 | < 200
O=C(Nc1cccc2c1nc1n2CCCC1)c1ccc(S(=O)(=O)NCCO)cc1N1CCC2(CC1)CC2 [Compound 39] | 75.5 | < 200
O=C(Nc1cccc2c1nc1n2CC2CCC1O2)c1ccc(NS(=O)(=O)CCO)cc1N1CCC2(CC1)CC2 (centres unmarked) [Compound 40] | 36.6 | < 200
O=C(Nc1cc2c(c3c1nc1n3CCCC1)OCC2)c1ccc(NS(=O)(=O)CCO)cc1N1CCC2(CC1)CC2 [Compound 42] | 26.5 | < 200
O=C(Nc1cccc2c1nc1n2C2CCC1CC2)c1ccc(NS(=O)(=O)CCO)cc1N1CCC2(CC1)CC2 [Compound 47] | 56.2 | < 200
O=C(Nc1cccc2c1nc1n2CC2CC12)c1ccc(NS(=O)(=O)CCO)cc1N1CCC2(CC1)CC2 (centres unmarked) [Compound 48] | 20.4 | < 200
N#Cc1ccc(NC(=O)c2ccc(NS(=O)(=O)CCO)cc2N2CCC3(CC2)CC3)c2nc3n(c12)CCCC3 [Compound 50] | 48.9 | < 200
O=C(Nc1cccc2c1nc1n2CCOCC1)c1ccc(NS(=O)(=O)CCO)cc1N1CCC2(CC1)CC2 [Compound 53] | 21 | < 200
O=C(Nc1cccc2c1nc1n2CCCOC1)c1ccc(NS(=O)(=O)CCO)cc1N1CCC2(CC1)CC2 [Compound 54] | 21 | < 200
CC1Cn2c(nc3c(NC(=O)c4ccc(NS(=O)(=O)CCO)cc4N4CCC5(CC4)CC5)cccc32)CO1 (centres unmarked) [Compound 55] | 17.5 | < 200
CC1OCCn2c1nc1c(NC(=O)c3ccc(NS(=O)(=O)CCO)cc3N3CCC4(CC3)CC4)cccc12 (centres unmarked) [Compound 56] | 31.2 | < 200
O=C(Nc1cccc2c1nc1n2CC2CC1O2)c1ccc(NS(=O)(=O)CCO)cc1N1CCC2(CC1)CC2 (centres unmarked) [Compound 59] | 23.3 | < 200
O=C(Nc1cccc2c1nc1n2CCCCCC1)c1ccc(NS(=O)(=O)CCO)cc1N1CCC2(CC1)CC2 [Compound 61] | 77 | < 200
CC1CCCCc2nc3c(NC(=O)c4ccc(NS(=O)(=O)CCO)cc4N4CCC5(CC4)CC5)cccc3n21 (centres unmarked) [Compound 68] | 41.6 | < 200
O=C(Nc1cccc2c1nc1n2CC2CC2C1)c1ccc(NS(=O)(=O)CCO)cc1N1CCC2(CC1)CC2 (centres unmarked) [Compound 70] | 93.3 | < 200
O=C(Nc1cccc2c1nc1n2CCC2CC12)c1ccc(NS(=O)(=O)CCO)cc1N1CCC2(CC1)CC2 (centres unmarked) [Compound 71] | 94.2 | < 200
O=C(Nc1cccc2c1nc1n2C2CCC1C2)c1ccc(NS(=O)(=O)CCO)cc1N1CCC2(CC1)CC2 (centres unmarked) [Compound 72] | 57.3 | < 200

The next lines start with the values.

IC50 (OVCAR3 cells) [nM] | IC50 (Human KIF18A (1-376aa)) [nM] | SMILES
77.6 |  | O=C(Nc1cc2nccn2c(N2CCC(F)(F)CC2)n1)c1ccc(NS(=O)(=O)CCO)cc1N1CCC2(CC1)CC2 [Compound 14]
3.67 | < 200 | O=C(Nc1cc2c(c(N3CCC(F)(F)CC3)c1)OCC2)c1ccc(NS(=O)(=O)CCO)cc1N1CCC2(CC1)CC2 [Compound 28]
16.8 | < 200 | O=C(Nc1cc2c(c(N3CCC(F)(F)CC3)c1)CCC2)c1ccc(NS(=O)(=O)CCO)cc1N1CCC2(CC1)CC2 [Compound 41]
9.13 | < 200 | O=C(Nc1cn2ccnc2c(N2CCC(F)(F)CC2)n1)c1ccc(NS(=O)(=O)CCO)cc1N1CCC2(CC1)CC2 [Compound 44]
6.65 | < 200 | O=C(Nc1cc(N2CCC(F)(F)CC2)c2occc2c1)c1ccc(NS(=O)(=O)CCO)cc1N1CCC2(CC1)CC2 [Compound 45]
49.6 | < 200 | O=C(Nc1cccc2c1nc1n2CCC(F)(F)CC1)c1ccc(NS(=O)(=O)CCO)cc1N1CCC2(CC1)CC2 [Compound 49]
68.1 | < 200 | O=C(Nc1cc2c(c(N3CCOCC3)c1)OCC2)c1ccc(NS(=O)(=O)CCO)cc1N1CCC2(CC1)CC2 [Compound 51]
8 | < 200 | Cn1cc(NC(=O)c2ccc(NS(=O)(=O)CCO)cc2N2CCC3(CC2)CC3)nc(N2CCC(F)(F)CC2)c1=O [Compound 58]
11 | < 200 | O=C(Nc1cc2c(c(N3CCC(F)(F)CC3)c1)OCCC2)c1ccc(NS(=O)(=O)CCO)cc1N1CCC2(CC1)CC2 [Compound 60]
65.7 | < 200 | O=C(Nc1cccc2c3c(nn12)CCCCC3)c1ccc(NS(=O)(=O)CCO)cc1N1CCC2(CC1)CC2 [Compound 64]
16.7 | < 500 | O=C(Nc1cc2c(c(N3CCC(F)(F)CC3)n1)OCC2)c1ccc(NS(=O)(=O)CCO)cc1N1CCC2(CC1)CC2 [Compound 65]
70 | < 200 | O=C(Nc1cc2c(c(N3CCC(F)(F)CC3)n1)COC2)c1ccc(NS(=O)(=O)CCO)cc1N1CCC2(CC1)CC2 [Compound 67]
